These compounds were tested against human IL-17A / human IL-17RA (Homo sapiens (Human), UniProt Q16552) (assay: Human IL-17A biochemical assay (HTRF, blocking of IL-17A binding to IL-17RA)). Conditions: 0.4 nM IL-17A, 0.3 nM IL-17RA, max compound concentration 10 uM.
Protocol: Compounds disclosed herein were tested for blocking of human IL-17A (Cat: C774, novoprotein) protein with its receptor human IL-17RA (Cat: C153, novoprotein) in an assay based on Homogeneous Time Resolved Fluorescence. 0.4 nM recombinant human IL-17A protein was pre-incubated with a serial dilution of compounds disclosed herein (maximum concentration is 10 uM, 2.7-fold serially diluted, 10 points) at room temperature for 3 hours in an assay buffer containing 20 mM HEPES, pH 7.5, 50 mM NaCl, 0.1% BSA, 0.2 mM DTT, 0.005% Tween 20. Then 0.3 nM recombinant human IL-17RA was added to plate and further incubated at room temperature for 1 hour. After that Mab Anti-6His Tb cryptate Gold (Cat: 61HI2TLB, Cisbio Bioassays) and MAb Anti Human IgG-XL665 (Cat: 61HFCXLB, Cisbio Bioassays) were added to plate and further incubated at room temperature for 1 hour. The HTRF signals (ex337 nm, em620 nm/665 nm) were read on BMG PHERAstar FSX instrument. The inhibition percentage of human IL-17A interaction with its receptor human IL-17RA in presence of increasing concentrations of compounds was calculated based on the ratio of […]. The IC50 for each compound was derived from fitting the data to the four-parameter logistic equation by Dotmatics.

human IL-17A / human IL-17RA, sequence (Q16552 24-155): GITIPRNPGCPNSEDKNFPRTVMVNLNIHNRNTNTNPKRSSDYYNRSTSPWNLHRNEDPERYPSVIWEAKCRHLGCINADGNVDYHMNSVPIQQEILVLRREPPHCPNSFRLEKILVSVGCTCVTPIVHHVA

Row | SMILES | IC50 [nM]
1 | CNC(=O)C1(N2CC(Cc3ccc(C#N)cc3)NC2=O)Cc2ccc(NC(=O)[C@@H](NC(=O)c3ccnn3C)C3CCCCC3)cc2C1 (stereo partly drawn) [Example 140, N-((1S)-2-((2-(4-(4-cyanobenzyl)-2-oxoimidazolidin-1-yl)-2-(methylcarbamoyl)-2,3-dihydro-1H-inden-5-yl)amino)-1-cyclohexyl-2-oxoethyl)-1-methyl-1H-pyrazole-5-carboxamide] | 277
2 | CNC(=O)C1(N2C[C@@H](C(C)C)NC2=O)Cc2ccc(NC(=O)[C@@H](NC(=O)CCc3ccccc3)C3CCCCC3)cc2C1 (stereo partly drawn) [Example 52, 5-((S)-2-cyclohexyl-2-(3-phenylpropanamido)acetamido)-2-((R)-4-isopropyl-2-oxoimidazolidin-1-yl)-N-methyl-2,3-dihydro-1H-indene-2-carboxamide] | 1310
3 | CNC(=O)C1(N2C[C@@H](C(C)C)NC2=O)Cc2ccc(NC(=O)[C@@H](NC(=O)c3ncnn3C)C3CCCCC3)cc2C1 (stereo partly drawn) [Example 64, N-((1S)-1-cyclohexyl-2-((2-((R)-4-isopropyl-2-oxoimidazolidin-1-yl)-2-(methylcarbamoyl)-2,3-dihydro-1H-inden-5-yl)amino)-2-oxoethyl)-1-methyl-1H-1,2,4-triazole-5-carboxamide] | 1820
4 | CNC(=O)C1(N2CC(CC(F)(F)F)NC2=O)Cc2ccc(NC(=O)[C@@H](NC(=O)c3ccnn3C)C3CCCCC3)cc2C1 (stereo partly drawn) [Example 73, N-((1S)-1-cyclohexyl-2-((2-(methylcarbamoyl)-2-(2-oxo-4-(2,2,2-trifluoroethyl)imidazolidin-1-yl)-2,3-dihydro-1H-inden-5-yl)amino)-2-oxoethyl)-1-methyl-1H-pyrazole-5-carboxamide] | 391
5 | CNC(=O)C1(N2CCCNC2=O)Cc2ccc(NC(=O)[C@@H](NC(=O)c3ccnn3C)C3CCCCC3)cc2C1 (stereo partly drawn) [Example 134, N-((1S)-1-cyclohexyl-2-((2-(methylcarbamoyl)-2-(2-oxotetrahydropyrimidin-1(2H)-yl)-2,3-dihydro-1H-inden-5-yl)amino)-2-oxoethyl)-1-methyl-1H-pyrazole-5-carboxamide] | 311
6 | CNC(=O)C1(N2CC(C)NC2=O)CCc2cc(NC(=O)[C@@H](NC(=O)c3ccnn3C)C3CCCCC3)ccc21 (stereo partly drawn) [Example 8, N-((1S)-1-cyclohexyl-2-((1-(4-methyl-2-oxoimidazolidin-1-yl)-1-(methylcarbamoyl)-2,3-dihydro-1H-inden-5-yl)amino)-2-oxoethyl)-1-methyl-1H-pyrazole-5-carboxamide] | > 10000
7 | CNC(=O)C1(N2C[C@@H](C(C)C)NC2=O)Cc2ccc(NC(=O)[C@@H](NC(=O)c3ccn(CCO)n3)C3CCCCC3)cc2C1 (stereo partly drawn) [Example 103, N-((1S)-1-cyclohexyl-2-((2-((R)-4-isopropyl-2-oxoimidazolidin-1-yl)-2-(methylcarbamoyl)-2,3-dihydro-1H-inden-5-yl)amino)-2-oxoethyl)-1-(2-hydroxyethyl)-1H-pyrazole-3-carboxamide] | 2700
8 | CNC(=O)C1(N2CC(C)NC2=O)CCc2ccc(NC(=O)[C@@H](NC(=O)c3ccnn3C)C3CCCCC3)cc2C1 (stereo partly drawn) [Example 10, N-((1S)-1-cyclohexyl-2-((7-(4-methyl-2-oxoimidazolidin-1-yl)-7-(methylcarbamoyl)-5,6,7,8-tetrahydronaphthalen-2-yl)amino)-2-oxoethyl)-1-methyl-1H-pyrazole-5-carboxamide] | 19000
9 | CCOC(=O)N[C@H](C(=O)Nc1ccc2c(c1)CC(C(=O)NC)(N1C[C@@H](C(C)C)NC1=O)C2)C1CCCCC1 (stereo partly drawn) [Example 50, ethyl ((1S)-1-cyclohexyl-2-((2-((R)-4-isopropyl-2-oxoimidazolidin-1-yl)-2-(methylcarbamoyl)-2,3-dihydro-1H-inden-5-yl)amino)-2-oxoethyl)carbamate] | 1580
10 | CNC(=O)C1(N2CC(C)NC2=O)CCc2ccc(NC(=O)[C@@H](NC(=O)c3ccnn3C)C3CCCCC3)cc2CC1 (stereo partly drawn) [Example 7, N-((1S)-1-cyclohexyl-2-((7-(4-methyl-2-oxoimidazolidin-1-yl)-7-(methylcarbamoyl)-6,7,8,9-tetrahydro-5H-benzo[7]annulen-2-yl)amino)-2-oxoethyl)-1-methyl-1H-pyrazole-5-carboxamide] | 51000
11 | CNC(=O)C1(N2C[C@@H](C(C)C)NC2=O)Cc2ccc(NC(=O)[C@@H](NC(=O)c3ccnn3C)c3ccccc3)cc2C1 (stereo partly drawn) [Example 60, N-((1S)-2-((2-((R)-4-isopropyl-2-oxoimidazolidin-1-yl)-2-(methylcarbamoyl)-2,3-dihydro-1H-inden-5-yl)amino)-2-oxo-1-phenylethyl)-1-methyl-1H-pyrazole-5-carboxamide] | 2010
12 | Cc1nonc1C(=O)N[C@H](C(=O)Nc1ccc2c(c1)CC(C(=O)Nc1ccc(C(F)(F)F)c(Cl)c1)(N1C[C@@H](C(C)C)NC1=O)C2)C(C1CC1)C1CC1 (stereo partly drawn) [Example 260, N-((2S)-1-((2-((3-chloro-4-(trifluoromethyl)phenyl)carbamoyl)-2-((R)-4-isopropyl-2-oxoimidazolidin-1-yl)-2,3-dihydro-1H-inden-5-yl)amino)-3,3-dicyclopropyl-1-oxopropan-2-yl)-4-methyl-1,2,5-oxadiazole-3-carboxamide] | > 10000
13 | Cc1nonc1C(=O)N[C@H](C(=O)Nc1ccc2c(c1)CC(CN1C[C@@H](C(F)(F)F)NC1=O)O2)C(C1CC1)C1CC1 (stereo partly drawn) [Example 293, N-((2S)-1,1-dicyclopropyl-3-oxo-3-((2-(((S)-2-oxo-4-(trifluoromethyl)imidazolidin-1-yl)methyl)-2,3-dihydrobenzofuran-5-yl)amino)propan-2-yl)-4-methyl-1,2,5-oxadiazole-3-carboxamide] | > 10000
14 | CNC(=O)C1(N2C[C@@H](C(C)C)NC2=O)Cc2ccc(NC(=O)[C@H](NC(=O)c3ccnn3C)C(C3CC3)C3CC3)cc2C1 (stereo partly drawn) [Example 93, N-((2R)-1,1-dicyclopropyl-3-((2-((R)-4-isopropyl-2-oxoimidazolidin-1-yl)-2-(methylcarbamoyl)-2,3-dihydro-1H-inden-5-yl)amino)-3-oxopropan-2-yl)-1-methyl-1H-pyrazole-5-carboxamide] | 830
15 | CC1CN(CC2Cc3ccc(NC(=O)[C@@H](NC(=O)c4ccnn4C)C4CCCCC4)cc3O2)C(=O)N1 (stereo partly drawn) [Example 21, N-((1S)-1-cyclohexyl-2-((2-((4-methyl-2-oxoimidazolidin-1-yl)methyl)-2,3-dihydrobenzofuran-6-yl)amino)-2-oxoethyl)-1-methyl-1H-pyrazole-5-carboxamide] | 2400
16 | CNC(=O)C1(N2C[C@@H](C(C)C)NC2=O)Cc2ccc(NC(=O)[C@@H](Nc3nc4ccccc4o3)C3CCCCC3)cc2C1 (stereo partly drawn) [Example 77, 5-((S)-2-(benzo[d]oxazol-2-ylamino)-2-cyclohexylacetamido)-2-((R)-4-isopropyl-2-oxoimidazolidin-1-yl)-N-methyl-2,3-dihydro-1H-indene-2-carboxamide] | 490
17 | Cc1nonc1C(=O)N[C@H](C(=O)Nc1ccc2c(c1)CC(C(=O)Nc1cc(Cl)cc(Cl)c1)(N1C[C@@H](C(C)C)NC1=O)C2)C(C1CC1)C1CC1 (stereo partly drawn) [Example 265, N-((2S)-1,1-dicyclopropyl-3-((2-((3,5-dichlorophenyl)carbamoyl)-2-((R)-4-isopropyl-2-oxoimidazolidin-1-yl)-2,3-dihydro-1H-inden-5-yl)amino)-3-oxopropan-2-yl)-4-methyl-1,2,5-oxadiazole-3-carboxamide] | 8070
18 | Cc1nonc1C(=O)N[C@H](C(=O)Nc1ccc2c(c1)CC(C(=O)Nc1ccc(C3CC3)cc1Cl)(N1C[C@@H](C(C)C)NC1=O)C2)C(C1CC1)C1CC1 (stereo partly drawn) [Example 267, N-((2S)-1-((2-((2-chloro-4-cyclopropylphenyl)carbamoyl)-2-((R)-4-isopropyl-2-oxoimidazolidin-1-yl)-2,3-dihydro-1H-inden-5-yl)amino)-3,3-dicyclopropyl-1-oxopropan-2-yl)-4-methyl-1,2,5-oxadiazole-3-carboxamide] | > 10000
19 | CNC(=O)C1(N2CC(C)NC2=O)COc2ccc(NC(=O)[C@@H](NC(=O)c3ccnn3C)C3CCCCC3)cc2OC1 (stereo partly drawn) [Example 6, N-((1S)-1-cyclohexyl-2-((3-(4-methyl-2-oxoimidazolidin-1-yl)-3-(methylcarbamoyl)-3,4-dihydro-2H-benzo[b][1,4]dioxepin-7-yl)amino)-2-oxoethyl)-1-methyl-1H-pyrazole-5-carboxamide] | 17000
20 | CNC(=O)C1Cc2ccc(NC(=O)[C@@H](NC(=O)c3ccnn3C)C3CCCCC3)cc2C1 (stereo partly drawn) [Example 4, N-((1S)-1-cyclohexyl-2-((2-(methylcarbamoyl)-2,3-dihydro-1H-inden-5-yl)amino)-2-oxoethyl)-1-methyl-1H-pyrazole-5-carboxamide] | > 10000
21 | CNC(=O)C1(N2CCC(C)NC2=O)Cc2ccc(NC(=O)[C@@H](NC(=O)c3ccnn3C)C3CCCCC3)cc2C1 (stereo partly drawn) [Example 95, N-((1S)-1-cyclohexyl-2-((2-(4-methyl-2-oxotetrahydropyrimidin-1(2H)-yl)-2-(methylcarbamoyl)-2,3-dihydro-1H-inden-5-yl)amino)-2-oxoethyl)-1-methyl-1H-pyrazole-5-carboxamide] | 4230
